This is an account of results in patent US11365188B2, “JAK inhibitors” (priority 2018, dated 2022).

Each structure is given as a SMILES string. Counter-ions that a name gives are not always drawn.

What all share (format): biochemical
The target in one assay is JAK2 (Homo sapiens, UniProt O60674). Nature of the assay: JAK2 Assay (Caliper EZ Reader, fluoresceinated peptide). The conditions noted are these: ATP 11.4 μM; JAK2 0.25 nM; 15 minutes at room temperature; read-out: JAK2 inhibition.
For the next assay, the target named is JAK1 (Homo sapiens, UniProt P23458). Nature of the assay: JAK Kinase Assay (JAK1, Caliper EZ Reader, fluoresceinated peptide). The conditions noted are these: ATP 76.5 μM; JAK1 10 nM; 120 minutes at room temperature; read-out: JAK1 inhibition.
Chain of JAK1 (P23458 whole entry, species assumed): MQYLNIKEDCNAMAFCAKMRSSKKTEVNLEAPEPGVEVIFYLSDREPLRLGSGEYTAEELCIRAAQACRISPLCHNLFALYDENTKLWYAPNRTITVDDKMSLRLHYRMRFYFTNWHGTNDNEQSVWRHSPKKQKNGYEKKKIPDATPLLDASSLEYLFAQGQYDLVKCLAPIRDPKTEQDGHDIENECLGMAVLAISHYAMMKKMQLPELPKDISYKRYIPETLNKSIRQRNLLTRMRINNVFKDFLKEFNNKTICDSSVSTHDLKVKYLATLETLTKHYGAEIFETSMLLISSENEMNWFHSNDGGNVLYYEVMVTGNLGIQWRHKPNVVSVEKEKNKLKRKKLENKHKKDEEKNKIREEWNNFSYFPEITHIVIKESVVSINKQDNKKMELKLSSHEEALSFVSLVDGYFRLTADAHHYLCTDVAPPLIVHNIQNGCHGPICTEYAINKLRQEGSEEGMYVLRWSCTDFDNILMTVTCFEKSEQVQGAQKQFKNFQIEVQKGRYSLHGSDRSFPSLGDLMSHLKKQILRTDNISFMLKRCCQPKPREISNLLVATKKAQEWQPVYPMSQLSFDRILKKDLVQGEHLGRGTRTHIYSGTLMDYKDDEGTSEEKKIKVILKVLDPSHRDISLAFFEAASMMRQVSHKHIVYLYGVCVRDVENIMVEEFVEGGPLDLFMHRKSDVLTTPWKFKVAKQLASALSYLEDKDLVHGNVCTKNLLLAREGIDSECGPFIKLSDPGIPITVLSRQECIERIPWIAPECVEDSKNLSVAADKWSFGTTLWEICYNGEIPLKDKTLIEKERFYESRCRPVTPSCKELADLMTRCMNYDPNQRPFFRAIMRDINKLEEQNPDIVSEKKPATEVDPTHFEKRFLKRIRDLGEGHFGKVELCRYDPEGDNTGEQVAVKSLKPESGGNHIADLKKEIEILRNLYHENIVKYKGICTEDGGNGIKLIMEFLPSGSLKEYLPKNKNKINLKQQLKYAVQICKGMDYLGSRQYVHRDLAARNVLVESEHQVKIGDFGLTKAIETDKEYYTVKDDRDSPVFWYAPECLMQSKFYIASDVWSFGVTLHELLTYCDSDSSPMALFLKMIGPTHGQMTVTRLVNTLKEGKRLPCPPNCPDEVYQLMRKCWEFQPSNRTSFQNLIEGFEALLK
For a further assay, the target named is T1, JAK3 (Homo sapiens, UniProt P52333).
T1 sequence (P52333 1-1124): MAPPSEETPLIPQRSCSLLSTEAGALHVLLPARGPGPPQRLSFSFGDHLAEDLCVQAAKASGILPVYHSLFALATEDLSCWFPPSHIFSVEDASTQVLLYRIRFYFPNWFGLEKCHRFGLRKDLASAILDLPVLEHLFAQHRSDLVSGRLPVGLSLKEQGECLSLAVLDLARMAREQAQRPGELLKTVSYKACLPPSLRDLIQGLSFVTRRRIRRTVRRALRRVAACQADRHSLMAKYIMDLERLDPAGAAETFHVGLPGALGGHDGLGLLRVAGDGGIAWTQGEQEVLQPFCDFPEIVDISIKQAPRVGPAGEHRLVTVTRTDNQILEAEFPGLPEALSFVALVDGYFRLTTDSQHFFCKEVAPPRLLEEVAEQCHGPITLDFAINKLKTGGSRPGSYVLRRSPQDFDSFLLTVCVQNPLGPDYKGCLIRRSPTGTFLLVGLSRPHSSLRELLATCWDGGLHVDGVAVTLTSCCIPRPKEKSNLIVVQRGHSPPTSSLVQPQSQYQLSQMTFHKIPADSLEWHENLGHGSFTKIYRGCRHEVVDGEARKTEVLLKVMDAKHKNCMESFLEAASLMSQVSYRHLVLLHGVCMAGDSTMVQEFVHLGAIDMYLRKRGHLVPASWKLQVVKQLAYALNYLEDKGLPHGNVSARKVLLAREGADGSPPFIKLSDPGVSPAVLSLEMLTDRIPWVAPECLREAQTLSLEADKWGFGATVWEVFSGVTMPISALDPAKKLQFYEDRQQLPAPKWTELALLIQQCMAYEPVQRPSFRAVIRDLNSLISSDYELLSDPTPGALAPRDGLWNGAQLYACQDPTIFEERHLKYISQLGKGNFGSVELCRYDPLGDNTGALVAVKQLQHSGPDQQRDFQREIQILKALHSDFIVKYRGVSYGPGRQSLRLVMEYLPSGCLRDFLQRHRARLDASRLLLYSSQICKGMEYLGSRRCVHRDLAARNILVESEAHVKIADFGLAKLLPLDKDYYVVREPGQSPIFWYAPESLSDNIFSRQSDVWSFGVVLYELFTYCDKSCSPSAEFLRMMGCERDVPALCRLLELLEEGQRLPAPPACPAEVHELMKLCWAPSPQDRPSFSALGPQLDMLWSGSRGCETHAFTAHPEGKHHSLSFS
Nature of the assay: JAK3 Assay (Caliper EZ Reader, fluoresceinated peptide). The conditions noted are these: ATP 3.5 μM; JAK3 0.5 nM; 30 minutes at room temperature; read-out: JAK3 inhibition.

Chain of JAK2 (O60674 whole entry, species assumed): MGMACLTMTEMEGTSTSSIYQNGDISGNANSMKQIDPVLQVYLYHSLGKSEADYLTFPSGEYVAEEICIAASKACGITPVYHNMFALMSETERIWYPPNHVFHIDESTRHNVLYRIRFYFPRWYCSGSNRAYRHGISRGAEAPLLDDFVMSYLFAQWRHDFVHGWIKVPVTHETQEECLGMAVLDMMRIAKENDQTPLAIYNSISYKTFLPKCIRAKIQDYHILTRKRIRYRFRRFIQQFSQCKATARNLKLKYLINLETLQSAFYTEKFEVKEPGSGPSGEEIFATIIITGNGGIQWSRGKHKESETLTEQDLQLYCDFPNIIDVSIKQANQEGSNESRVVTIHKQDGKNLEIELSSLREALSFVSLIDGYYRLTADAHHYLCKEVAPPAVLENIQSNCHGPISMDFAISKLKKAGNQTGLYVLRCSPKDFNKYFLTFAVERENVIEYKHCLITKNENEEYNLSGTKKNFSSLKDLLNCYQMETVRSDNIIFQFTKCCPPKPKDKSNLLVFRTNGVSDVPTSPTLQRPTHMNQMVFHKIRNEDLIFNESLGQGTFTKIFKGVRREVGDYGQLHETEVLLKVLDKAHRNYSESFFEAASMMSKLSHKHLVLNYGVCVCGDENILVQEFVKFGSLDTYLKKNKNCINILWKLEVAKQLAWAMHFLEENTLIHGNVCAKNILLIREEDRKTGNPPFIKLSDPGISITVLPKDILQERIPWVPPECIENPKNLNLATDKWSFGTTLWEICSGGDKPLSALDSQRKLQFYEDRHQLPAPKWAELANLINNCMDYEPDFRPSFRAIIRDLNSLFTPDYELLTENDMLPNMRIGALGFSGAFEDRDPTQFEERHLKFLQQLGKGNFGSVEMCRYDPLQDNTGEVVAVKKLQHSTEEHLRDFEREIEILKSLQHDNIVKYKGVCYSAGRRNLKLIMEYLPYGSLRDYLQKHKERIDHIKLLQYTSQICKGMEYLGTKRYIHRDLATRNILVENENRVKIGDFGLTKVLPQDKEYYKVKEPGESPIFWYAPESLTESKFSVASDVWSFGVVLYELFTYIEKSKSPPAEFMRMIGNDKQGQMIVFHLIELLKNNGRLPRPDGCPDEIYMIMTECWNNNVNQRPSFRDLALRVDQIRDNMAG

For the compound `CN(c1ncnc2[nH]ccc12)C1CCC2(CC1)CCN(C(=O)c1ccc(C#N)cc1F)CC2` [Compound 84, 3-Fluoro-4-{9-[methyl-(7H-pyrrolo[2,3-d]pyrimidin-4-yl)-amino]-3-aza-spiro[5.5]undecane-3-carbonyl}-benzonitrile], the values for the IC50 at JAK2, at JAK1 and on JAK3 were 100 to 1000 nM, 100 to 1000 nM and 1000 to 10000 nM, respectively.
With `CN(c1ncnc2[nH]ccc12)C1CCC2(CC1)CCN(C(=O)Cc1ccc(C#N)cc1)CC2` [Compound 85, 4-(2-{9-[Methyl-(7H-pyrrolo[2,3-d]pyrimidin-4-yl)-amino]-3-aza-spiro[5.5]undec-3-yl}-2-oxo-ethyl)-benzonitrile], the values for the IC50 at JAK2, on JAK1 and at JAK3 were 100 to 1000 nM, 10 to 100 nM and 100 to 1000 nM, respectively.
As for `CN(c1ncnc2[nH]ccc12)C1CCC2(CC1)CCN(C(=O)CCS(C)(=O)=O)CC2` [Compound 86, 3-Methanesulfonyl-1-{9-[methyl-(7H-pyrrolo[2,3-d]pyrimidin-4-yl)-amino]-3-aza-spiro[5.5]undec-3-yl}-propan-1-one], the values for the IC50 at JAK2, on JAK1 and at JAK3 were 100 to 1000 nM, 100 to 1000 nM and 1000 to 10000 nM, respectively.
Consider `CN(c1ncnc2[nH]ccc12)C1CCC2(CC1)CCN(C(=O)c1ccc(C#N)c(F)c1)CC2` [Compound 87, 2-Fluoro-4-{9-[methyl-(7H-pyrrolo[2,3-d]pyrimidin-4-yl)-amino]-3-aza-spiro[5.5]undecane-3-carbonyl}-benzonitrile], for which the IC50 at JAK2, at JAK1 and at JAK3 was 100 to 1000 nM each time.
Regarding `CN(c1ncnc2[nH]ccc12)C1CCC2(CC1)CCN(C(=O)c1cnccn1)CC2` [Compound 88, {9-[Methyl-(7H-pyrrolo[2,3-d]pyrimidin-4-yl)-amino]-3-aza-spiro[5.5]undec-3-yl}-pyrazin-2-yl-methanone], the results for the IC50 at JAK2, at JAK1 and at JAK3 were 100 to 1000 nM, 100 to 1000 nM and 1000 to 10000 nM, respectively.
Turning to `CN(c1ncnc2[nH]ccc12)C1CCC2(CC1)CCN(C(=O)C1(C#N)CC1)CC2` [Compound 89, 1-{9-[Methyl-(7H-pyrrolo[2,3-d]pyrimidin-4-yl)-amino]-3-aza-spiro[5.5]undecane-3-carbonyl}-cyclopropanecarbonitrile], the IC50 on JAK2 is 100 to 1000 nM; at JAK1, 100 to 1000 nM; at JAK3, 1000 to 10000 nM.
Consider `Cc1cncc(C(=O)N2CCC3(CCC(N(C)c4ncnc5[nH]ccc45)CC3)CC2)n1` [Compound 90, (6-Methyl-pyrazin-2-yl)-{9-[methyl-(7H-pyrrolo[2,3-d]pyrimidin-4-yl)-amino]-3-aza-spiro[5.5]undec-3-yl}-methanone], for which the results for the IC50 on JAK2, on JAK1 and on JAK3 were 100 to 1000 nM, 100 to 1000 nM and 1000 to 10000 nM, respectively.
For the compound `CN(c1ncnc2[nH]ccc12)C1CCC2(CC1)CCN(C(=O)CCC(F)(F)F)CC2` [Compound 91, 4,4,4-Trifluoro-1-{9-[methyl-(7H-pyrrolo[2,3-d]pyrimidin-4-yl)-amino]-3-aza-spiro[5.5]undec-3-yl}-butan-1-one], the figures for the IC50 at JAK2, at JAK1 and at JAK3 were 100 to 1000 nM, 100 to 1000 nM and 1000 to 10000 nM, respectively.
Consider `CN(c1ncnc2[nH]ccc12)C1CCC2(CC1)CCN(C(=O)c1csc3ccccc13)CC2` [Compound 92, Benzo[b]thiophen-3-yl-{9-[methyl-(7H-pyrrolo[2,3-d]pyrimidin-4-yl)-amino]-3-aza-spiro[5.5]undec-3-yl}-methanone], for which the IC50 at JAK2, on JAK1 and on JAK3 was 100 to 1000 nM each time.
For `CN(c1ncnc2[nH]ccc12)C1CCC2(CC1)CCN(C(=O)Cc1c[nH]c3ccccc13)CC2` [Compound 93, 2-(1H-Indol-3-yl)-1-{9-[methyl-(7H-pyrrolo[2,3-d]pyrimidin-4-yl)-amino]-3-aza-spiro[5.5]undec-3-yl}-ethanone], the IC50 on JAK2, at JAK1 and at JAK3 was 100 to 1000 nM each time.
With `Cc1ccsc1C(=O)N1CCC2(CCC(N(C)c3ncnc4[nH]ccc34)CC2)CC1` [Compound 94, {9-[Methyl-(7H-pyrrolo[2,3-d]pyrimidin-4-yl)-amino]-3-aza-spiro[5.5]undec-3-yl}-(3-methyl-thiophen-2-yl)-methanone], the IC50 at JAK2 is 100 to 1000 nM; on JAK1, 100 to 1000 nM; on JAK3, 1000 to 10000 nM.
Turning to `CN(c1ncnc2[nH]ccc12)C1CCC2(CC1)CCN(C(=O)c1cc3ccccc3[nH]1)CC2` [Compound 95, (1H-Indol-2-yl)-{9-[methyl-(7H-pyrrolo[2,3-d]pyrimidin-4-yl)-amino]-3-aza-spiro[5.5]undec-3-yl}-methanone], the IC50 at JAK2, at JAK1 and on JAK3 was 100 to 1000 nM throughout.
Consider `CCCS(=O)(=O)N1CCC2(CCC(N(C)c3ncnc4c3CCN4)CC2)CC1` [Compound 96, (6,7-Dihydro-5H-pyrrolo[2,3-d]pyrimidin-4-yl)-methyl-[3-(propane-1-sulfonyl)-3-aza-spiro[5.5]undec-9-yl]-amine], for which the IC50 at JAK2 lay in the range of 100 to 1000 nM; on JAK1 it was 100 to 1000 nM; at JAK3 it was 1000 to 10000 nM.
For the compound `CNCC(=O)N1CCC2(CCC(N(C)c3ncnc4[nH]ccc34)CC2)CC1` [Compound 97, 2-Methylamino-1-{9-[methyl-(7H-pyrrolo[2,3-d]pyrimidin-4-yl)-amino]-3-aza-spiro[5.5]undec-3-yl}-ethanone HCl salt], the IC50 at JAK2 fell in the range of 100 to 1000 nM; at JAK1 it was 100 to 1000 nM; on JAK3, 1000 to 10000 nM.
`CC(C)OC(=O)N1CCC2(CCC(N(C)c3ncnc4c3CCN4)CC2)CC1` [Compound 98, 9-[(6,7-Dihydro-5H-pyrrolo[2,3-d]pyrimidin-4-yl)-methyl-amino]-3-aza-spiro[5.5]undecane-3-carboxylic acid isopropyl ester]: the IC50 on JAK2 fell in the range of 100 to 1000 nM; on JAK1 it was 10 to 100 nM; at JAK3, 1000 to 10000 nM.
In the case of `CN(c1ncnc2[nH]ccc12)C1CCC2(CC1)CCN(C(=O)C1CC1)CC2` [Compound 99, Cyclopropyl-{9-[methyl-(7H-pyrrolo[2,3-d]pyrimidin-4-yl)-amino]-3-aza-spiro[5.5]undec-3-yl}-methanone], the IC50 fell in the range of 100 to 1000 nM on JAK2, 10 to 100 nM on JAK1 and 1000 to 10000 nM at JAK3.
`CCCC(=O)N1CCC2(CCC(N(C)c3ncnc4[nH]ccc34)CC2)CC1` [Compound 100, 1-{9-[Methyl-(7H-pyrrolo[2,3-d]pyrimidin-4-yl)-amino]-3-aza-spiro[5.5]undec-3-yl}-butan-1-one]: the IC50 on JAK2 lay in the range of 100 to 1000 nM; at JAK1, 100 to 1000 nM; on JAK3, 1000 to 10000 nM.
For `CN(c1ncnc2[nH]ccc12)C1CCC2(CC1)CCN(C(=O)c1cccc(OC(F)(F)F)c1)CC2` [Compound 101, {9-[Methyl-(7H-pyrrolo[2,3-d]pyrimidin-4-yl)-amino]-3-aza-spiro[5.5]undec-3-yl}-(3-trifluoromethoxy-phenyl)-methanone], the IC50 was 100 to 1000 nM on JAK2, 100 to 1000 nM at JAK1 and 1000 to 10000 nM at JAK3.
As to `CN(c1ncnc2[nH]ccc12)C1CCC2(CC1)CCN(C(=O)c1cccc(C#N)c1)CC2` [Compound 102, 3-{9-[Methyl-(7H-pyrrolo[2,3-d]pyrimidin-4-yl)-amino]-3-aza-spiro[5.5]undecane-3-carbonyl}-benzonitrile], the IC50 at JAK2, on JAK1 and at JAK3 was 100 to 1000 nM throughout.
For `CN(c1ncnc2[nH]ccc12)C1CCC2(CC1)CCN(S(=O)(=O)CC(F)(F)F)CC2` [Compound 103, Methyl-(7H-pyrrolo[2,3-d]pyrimidin-4-yl)-[3-(2,2,2-trifluoro-ethanesulfonyl)-3-aza-spiro[5.5]undec-9-yl]-amine], the IC50 at JAK2 was in the range of 100 to 1000 nM; on JAK1 it was 10 to 100 nM; on JAK3, 100 to 1000 nM.
Consider `CN(c1ncnc2[nH]ccc12)C1CCC2(CC1)CCN(C(=O)CC#N)CC2` [Compound 104, 3-{9-[Methyl-(7H-pyrrolo[2,3-d]pyrimidin-4-yl)-amino]-3-aza-spiro[5.5]undec-3-yl}-3-oxo-propionitrile], for which the IC50 on JAK2, at JAK1 and on JAK3 was 1000 to 10000 nM in each case.
